{
  "source": "patent US12215140B2",
  "about": "“Method of stabilizing protein contained in specimen and solution for stabilizing protein contained in specimen” (EIKEN KAGAKU KABUSHIKI KAISHA, priority 2018, dated 2025)",
  "target": "hemoglobin (Homo sapiens, UniProt P68871+P69905)",
  "sequence (P69905 2-142)": "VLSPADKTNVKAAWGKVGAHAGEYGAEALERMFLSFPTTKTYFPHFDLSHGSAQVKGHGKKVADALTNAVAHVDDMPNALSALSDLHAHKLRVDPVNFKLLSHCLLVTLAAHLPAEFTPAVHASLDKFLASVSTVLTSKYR",
  "sequence (P68871 2-147)": "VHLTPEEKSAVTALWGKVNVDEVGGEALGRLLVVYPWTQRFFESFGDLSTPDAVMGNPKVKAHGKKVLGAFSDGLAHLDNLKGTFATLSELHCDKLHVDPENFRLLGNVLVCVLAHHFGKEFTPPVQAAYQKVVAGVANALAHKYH",
  "experiment": "Stability of hemoglobin in samples preserved at 37° C. in preservation solution containing no haptoglobin, Hb measured by latex agglutination method (Examples 8, 9 and Table 10)",
  "conditions": "for Hb concentration / Recovery ratio with respect to Hb after 0 days: no phenylboronic acid, sugar 100 mmol/L",
  "how_it_was_run": "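Latex agglutination gave Hb concentration after storage at 37 °C for up to 62 h. Preservation solution (HEPES 40 mmol/L pH 6.8, BSA, NaN3, no haptoglobin) contained 0–2.5 mmol/L phenylboronic acid, some with added sugars (10–250 mmol/L). Samples held about 300 μg/L Hb, with or without 0.5% feces.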",
  "data": [
    {"smiles": "OC[C@H]1O[C@H](O[C@H]2O[C@H](CO)[C@@H](O)[C@H](O)[C@H]2O)[C@H](O)[C@@H](O)[C@@H]1O", "note": "[Trehalose, trehalose]", "values": [
      {"measurement": "Hb concentration", "setting": "Feces 1, 0 h at 37° C.", "result": 268, "unit": "µg/L"},
      {"measurement": "Recovery ratio with respect to Hb after 0 days", "setting": "Feces 1, 0 h at 37° C.", "result": 100, "unit": "%"},
      {"measurement": "Hb concentration", "setting": "Feces 1, 16 h at 37° C.", "result": 133, "unit": "µg/L"},
      {"measurement": "Recovery ratio with respect to Hb after 0 days", "setting": "Feces 1, 16 h at 37° C.", "result": 50, "unit": "%"},
      {"measurement": "Hb concentration", "setting": "Feces 1, 38 h at 37° C.", "result": 41, "unit": "µg/L"},
      {"measurement": "Recovery ratio with respect to Hb after 0 days", "setting": "Feces 1, 38 h at 37° C.", "result": 15, "unit": "%"},
      {"measurement": "Hb concentration", "setting": "Feces 1, 62 h at 37° C.", "result": 8, "unit": "µg/L"},
      {"measurement": "Recovery ratio with respect to Hb after 0 days", "setting": "Feces 1, 62 h at 37° C.", "result": 3, "unit": "%"},
      {"measurement": "Hb concentration", "setting": "Feces 2, 0 h at 37° C.", "result": 254, "unit": "µg/L"},
      {"measurement": "Recovery ratio with respect to Hb after 0 days", "setting": "Feces 2, 0 h at 37° C.", "result": 100, "unit": "%"},
      {"measurement": "Hb concentration", "setting": "Feces 2, 16 h at 37° C.", "result": 54, "unit": "µg/L"},
      {"measurement": "Recovery ratio with respect to Hb after 0 days", "setting": "Feces 2, 16 h at 37° C.", "result": 21, "unit": "%"},
      {"measurement": "Hb concentration", "setting": "Feces 2, 38 h at 37° C.", "result": 1, "unit": "µg/L"},
      {"measurement": "Recovery ratio with respect to Hb after 0 days", "setting": "Feces 2, 38 h at 37° C.", "result": 0, "unit": "%"},
      {"measurement": "Hb concentration", "setting": "Feces 2, 62 h at 37° C.", "result": 0, "unit": "µg/L"},
      {"measurement": "Recovery ratio with respect to Hb after 0 days", "setting": "Feces 2, 62 h at 37° C.", "result": 0, "unit": "%"},
      {"measurement": "Hb concentration", "setting": "Feces 3, 0 h at 37° C.", "result": 260, "unit": "µg/L"},
      {"measurement": "Recovery ratio with respect to Hb after 0 days", "setting": "Feces 3, 0 h at 37° C.", "result": 100, "unit": "%"},
      {"measurement": "Hb concentration", "setting": "Feces 3, 16 h at 37° C.", "result": 48, "unit": "µg/L"},
      {"measurement": "Recovery ratio with respect to Hb after 0 days", "setting": "Feces 3, 16 h at 37° C.", "result": 19, "unit": "%"},
      {"measurement": "Hb concentration", "setting": "Feces 3, 38 h at 37° C.", "result": 0, "unit": "µg/L"},
      {"measurement": "Recovery ratio with respect to Hb after 0 days", "setting": "Feces 3, 38 h at 37° C.", "result": 0, "unit": "%"},
      {"measurement": "Hb concentration", "setting": "Feces 3, 62 h at 37° C.", "result": 0, "unit": "µg/L"},
      {"measurement": "Recovery ratio with respect to Hb after 0 days", "setting": "Feces 3, 62 h at 37° C.", "result": 0, "unit": "%"},
      {"measurement": "Hb concentration", "setting": "No feces, 0 h at 37° C.", "result": 280, "unit": "µg/L"},
      {"measurement": "Recovery ratio with respect to Hb after 0 days", "setting": "No feces, 0 h at 37° C.", "result": 100, "unit": "%"},
      {"measurement": "Hb concentration", "setting": "No feces, 16 h at 37° C.", "result": 241, "unit": "µg/L"},
      {"measurement": "Recovery ratio with respect to Hb after 0 days", "setting": "No feces, 16 h at 37° C.", "result": 86, "unit": "%"},
      {"measurement": "Hb concentration", "setting": "No feces, 38 h at 37° C.", "result": 228, "unit": "µg/L"},
      {"measurement": "Recovery ratio with respect to Hb after 0 days", "setting": "No feces, 38 h at 37° C.", "result": 81, "unit": "%"},
      {"measurement": "Hb concentration", "setting": "No feces, 62 h at 37° C.", "result": 219, "unit": "µg/L"},
      {"measurement": "Recovery ratio with respect to Hb after 0 days", "setting": "No feces, 62 h at 37° C.", "result": 78, "unit": "%"},
      {"measurement": "recovery ratio of hemoglobin in the sample", "setting": "sugar further added to phenylboronic acid 0.5 mmol/L, no haptoglobin, Feces 1, Feces 2, Feces 3", "result": "further improved"}
    ]}
  ]
}
